{"source": "patent US7585644B2", "about": "“Mycopolasma detecting methods and materials” (priority 2003, dated 2009)", "key": {"[1]": {"test_system": "M. pneumoniae, M. hominis, M. fermentans, M. genitalium and U. urealyticum", "details": "variable responses between species; cited from earlier work"}, "[2]": {"test_system": "luciferase enzyme/reaction", "assay": "Effect of detergents and substrate on light output of the luciferase reaction", "type": "biochemical", "excerpt": "(§1) The aim of the following experiments was to determine the concentrations of Triton-X100 in the Hepes-EDTA buffer on the ratios seen with mycoplasma contaminated K562 cell cultures. Two organisms were investigated, M. hyorhinis and M. orale.\n(§2) However, it is still possible to detect positive activity with concentrations as high as 20% (v/v).\n(§3) The concentrations of these detergents can be taken up to 10% without loss of sensitivity of mycoplasmal detection."}, "[3]": {"target": "luciferase (Photinus pyralis, UniProt P08659)", "sequence (P08659 whole entry)": "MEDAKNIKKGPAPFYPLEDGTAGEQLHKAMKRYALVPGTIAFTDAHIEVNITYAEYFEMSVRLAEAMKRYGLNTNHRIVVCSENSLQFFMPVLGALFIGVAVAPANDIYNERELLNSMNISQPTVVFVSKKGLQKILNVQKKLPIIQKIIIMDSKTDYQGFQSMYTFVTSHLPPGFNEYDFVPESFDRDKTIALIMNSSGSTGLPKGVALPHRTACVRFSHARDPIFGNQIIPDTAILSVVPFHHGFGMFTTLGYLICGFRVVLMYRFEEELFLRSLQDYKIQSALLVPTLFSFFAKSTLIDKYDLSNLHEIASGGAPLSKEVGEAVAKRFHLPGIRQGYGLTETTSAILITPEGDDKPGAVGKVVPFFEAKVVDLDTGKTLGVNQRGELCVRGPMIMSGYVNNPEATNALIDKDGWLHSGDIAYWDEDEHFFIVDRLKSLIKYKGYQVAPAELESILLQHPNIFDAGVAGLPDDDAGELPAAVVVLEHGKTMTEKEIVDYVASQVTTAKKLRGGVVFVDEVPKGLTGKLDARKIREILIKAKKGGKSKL", "details": "cited from earlier work"}, "[4]": {"test_system": "E. coli strain JM109 cells", "assay": "Effect of Triton-X100 on carbamate or acetate kinase activity from bacterial cells", "type": "cell-based"}, "[5]": {"test_system": "M. hyorhinis and M. orale", "assay": "Effect of detergent concentration on detection of mycoplasma enzyme activities", "type": "cell-based", "excerpt": "as §1, §2\nHowever, mycoplasma can be lysed with concentrations of Triton X-100 at around 1-2%.\nas §3"}}, "data": [{"compound": "CO/N=C1\\CN(c2nc3c(cc2F)c(=O)c(C(=O)O)cn3C2CC2)CC1CN", "note": "(centres unmarked) [gemifloxacin]", "values": [{"measurement": "performance against mycoplasma compared with other antibiotics", "setting": "[1]", "value": "performed better than tetracycline"}]}, {"compound": "CC(=O)OP(=O)(O)O", "note": "[Acetyl phosphate]", "values": [{"measurement": "concentration above which light output is reduced", "setting": "[2]; assay still performs", "value": "above 10"}]}, {"compound": "Nc1ncnc2c1ncn2[C@H]1C[C@H](O)[C@@H](COP(=O)(O)OP(=O)(O)OP(=O)(O)O)O1", "note": "[deoxy-ATP]", "values": [{"measurement": "light produced relative to the light generated by ATP", "setting": "[3]", "value": "less than 2%"}]}, {"compound": "Triton-X100", "values": [{"measurement": "carbamate or acetate kinase activity", "setting": "[4]; Triton-X100 concentrations of the FIG. 10 experiments", "value": "did not result in any detectable carbamate or acetate kinase activity"}, {"measurement": "ratio B/A", "setting": "[4]; Triton-X100 increased to 1-2%", "value": "did not result in positive ratios above 1"}, {"measurement": "detergent concentration above which light output drops", "setting": "[2]; K562 cells infected with M. hyorhinis and M. orale, Hepes-EDTA buffer", "value": "4-5%"}, {"measurement": "concentration that lyses mycoplasma", "setting": "[5]", "value": "1-2%"}, {"measurement": "highest detergent concentration at which positive activity is still detected", "setting": "[5]; K562 cells infected with M. hyorhinis and M. orale", "value": "20 % (v/v)"}]}]}
